Test results as given in patent US9932479B2, “Dyes and compositions, and processes for using same in analysis of protein aggregation and other applications” (Enzo Biochem, Inc., priority 2009, dated 2018).

Experiments:
Hen Egg White Lysozyme = molecular target: T1, Hen Egg White Lysozyme (Gallus gallus, UniProt P00698); assay: Inhibition of Lysozyme aggregation at pH 12.2, S-25/Tol3 readout; type: biochemical; details: 510 μM Chitotriose, 300 μM Lysozyme, aggregation induced at pH 12.2
T1 construct: Hen egg white lysozyme was solubilized in 10 mM HCl; from tissue; host or cells: hen egg white
Method: Hen egg white Lysozyme (300 μM) was incubated with or without N,N′,N″-triacetyl-chitotriose (Chitotriose, 510 μM) in 10 mM potassium phosphate, pH 7.3 for 16 hours. Aggregation was induced by 3.5 fold dilution into 50 mM potassium phosphate, pH 12.2. Aggregation was followed by removing an aliquot of the protein and diluting such that the final composition was 20 μM protein, 50 mM potassium phosphate, pH 7, 3 μM S-25 and 3 μM Tol3. Protein was incubated with dye for 15 minutes prior to determining the fluorescence using a BioTek Synergy Mx plate scanner, with excitation setting at 515 nm and emission setting at 603 nm, both with a 9 nm slit-width. The zero time point was taken before dilution to pH 12.2. Readings were taken in at least triplicate in a Greiner μClear black, clear bottom 96-well microplate. Aggregation was followed for several weeks at room temperature (19°-23° C.).

Rabbit-anti-goat IgG [1] = assay: Chemical shift assay based on internal tryptophan fluorescence; type: biochemical; details: 4.55 M urea; from chemical shift curve FIG. 16 (A)
Method: (A) Chemical shift assay based on internal tryptophan fluorescence: Rabbit-anti-goat IgG (Pel Freeze) in 1×PBS buffer of pH 7.4 was mixed with urea in 1×PBS to achieve a final IgG concentration of 0.25 mg/mL. After mixing on ice for 10 minutes, the fluorescence emission intensity at 330 nm was recorded by exciting at 280 nm using a MD-5020 fluorimeter (Phototechnology International). A chemical shift curve was plotted based on internal tryptophan fluorescence intensity at each given urea concentration. Urea denatures proteins but prevents them from aggregating.

[2] = Fluorescence excitation and emission spectra of dye freely dissolved in buffer; type: physicochemical; details: 50 mM Tris-HCl, pH 7.8, 10 μM dye, room temperature
Method: (§1) Fluorescent readings were carried out in 50 mM Tris-HCl, pH 7.8 using 10 μM dye. […] Fluorescence excitation and emission spectra were collected on a Cary Eclipse fluorescence spectrophotometer (Varian, Australia). Fluorescence spectra were measured with excitation and emission slit widths set to 5 nm, and at a constant PMT voltage. Spectroscopic measurements were performed in standard quartz cells. All measurements were made at the respective excitation maxima of each dye. All measurements were carried out at room temperature.

β-lactoglobulin (BLG) = molecular target: T2, β-lactoglobulin (BLG) (Bos taurus, UniProt P02754); assay: Thermal shift assay of BLG aggregation; type: binding; details: BLG 4 or 16 mg/mL, heating 28° C. to 90° C.
T2 sequence (P02754 17-178): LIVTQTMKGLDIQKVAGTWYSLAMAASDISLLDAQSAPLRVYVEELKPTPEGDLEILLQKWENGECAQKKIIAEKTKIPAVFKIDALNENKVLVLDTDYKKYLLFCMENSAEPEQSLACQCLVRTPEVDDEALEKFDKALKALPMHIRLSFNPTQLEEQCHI
Method: A solution containing 4 or 16 mg/mL of β-lactoglobulin (BLG) and 2×SYPRO® Orange dye (Molecular Probes, supplied as 5000× with unknown concentration) or 4 μM TOL3 or 4 μM S25 was prepared using 1×PBS, pH 7.4 as the dilution buffer. This solution was then loaded into LightCycler® capillaries (20 μL, Roche Diagnostics GmbH). These capillaries were then mounted on the sample holder of a LightCycler® 480 Real-Time PCR System (Roche), programmed to heat from 28° C. to 90° C. at 3° C./min, followed by cooling down to 28° C. at the same rate. The thermal shift curves were achieved by plotting fluorescence intensity vs. temperature. After the heating cycle, protein aggregates were visually apparent.

[3] = molecular target: T3, recombinant human alpha-synuclein (ASN) aggregate (Homo sapiens, UniProt P37840); assay: Fluorescence excitation and emission spectra of dye in the presence of aggregated alpha-synuclein; type: binding; details: 1 μM aggregated ASN, 50 mM Tris-HCl, pH 7.8, 10 μM dye
T3 construct: purchased Sigma-Aldrich
Method: as §1

Rabbit-anti-goat IgG [4] = assay: Fluorescence response to unfolded versus aggregated IgG in 4.55 M urea; type: binding; details: 6.67 μM Tol3
Method: (B) A solution containing aggregated IgG (formed as in Example 13 (B)) or monomeric IgG at 0.033 mg/mL, 4.55 M urea and 6.67 μM Tol3 was prepared and transferred into a microplate. After incubating at 4° C. degree for about 10 minutes, the fluorescence was recorded. Two control solutions without IgG, but with the same concentration of TOl3, were included, one including 4.55M urea, another without urea. From the previous chemical shift curve generated (seen in FIG. 16 (A)), 4.55 M urea is known to unfold approximately 60% of the IgG.

[5] = test system: goat-anti-mouse IgG aggregate; assay: Fluorescence enhancement (aggregate/native IgG) in the presence of excipients; type: binding; details: for Fluorescence enhancement (aggregate/native IgG): 2.8 μM IgG, 0.625 μM dye; for Fluorescence enhancement (aggregate/native IgG), Average: Average over all excipient conditions
Method: IgG aggregate was prepared by adjusting 5.83 mg/ml of purified goat-anti-mouse IgG (H&L, Pel Freez, Rogers, Ark.) to pH 2.7 using HCl and incubating at 22° C. for 24 hours. The assay was performed using 2.8 μM IgG, either native or aggregated, and a dye concentration of 0.625 μM. The protein and dye were mixed together for 15 minutes at 22° C., then this was further incubated in the presence of the excipients shown in the table. The fluorescence intensity of S-25, Tol3 and Y2150 were determined with a FLUOstar OPTIMA plate reader (BMG LABTECH) at excitation wavelength of 550 nm and emission wavelength of 610 nm; while the fluorescence intensity for Thioflavin-T was determined using a SpectraMAX GeminiXS (Molecular device, with Softmax Pro 7.0) using an excitation wavelength of 435 nm and emission wavelength of 495 nm. The fluorescence enhancement (aggregate/native IgG) is shown.

T1 sequence (P00698 19-147): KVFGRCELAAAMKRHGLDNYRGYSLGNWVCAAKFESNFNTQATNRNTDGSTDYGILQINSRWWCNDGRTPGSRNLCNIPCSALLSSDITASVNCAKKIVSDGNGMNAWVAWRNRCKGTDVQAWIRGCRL

Compound	Dye freely dissolved in buffer: Emission wavelength [2] [nm]	Dye freely dissolved in buffer: Excitation wavelength [2] [nm]	Detection of BLG thermal shift (melting) peak (β-lactoglobulin (BLG))	In the presence of aggregate: Emission wavelength [3] [nm]	In the presence of aggregate: Excitation wavelength [3] [nm]	Fluorescence enhancement (aggregate/native IgG) ([5]; Ammonium Sulfate, 10 mM) [fold]	Fluorescence enhancement (aggregate/native IgG) ([5]; Ammonium Sulfate, 100 mM) [fold]	Fluorescence enhancement (aggregate/native IgG) ([5]; Ammonium Sulfate, 300 mM) [fold]	Fluorescence enhancement (aggregate/native IgG) ([5]; Arginine, 200 mM) [fold]	Fluorescence enhancement (aggregate/native IgG) ([5]; Arginine, 500 mM) [fold]	Fluorescence enhancement (aggregate/native IgG) ([5]; Ascoric Acid, 1 mM) [fold]	Fluorescence enhancement (aggregate/native IgG), Average [5] [fold]	Fluorescence enhancement (aggregate/native IgG) ([5]; Calcium Chloride, 10 mM) [fold]	Fluorescence enhancement (aggregate/native IgG) ([5]; Calcium Chloride, 50 mM) [fold]	Fluorescence enhancement (aggregate/native IgG) ([5]; Calcium Chloride, 200 mM) [fold]	Fluorescence enhancement (aggregate/native IgG) ([5]; DTT, 1 mM) [fold]	Fluorescence enhancement (aggregate/native IgG) ([5]; Glycine, 0.5%) [fold]	Fluorescence enhancement (aggregate/native IgG) ([5]; Glycine, 2%) [fold]	Fluorescence enhancement (aggregate/native IgG) ([5]; Lactose, 100 mM) [fold]	Fluorescence enhancement (aggregate/native IgG) ([5]; Lactose, 300 mM) [fold]	further results
CC(=O)N[C@H]1[C@H](O[C@H]2[C@H](O)[C@@H](NC(C)=O)C(O)O[C@@H]2CO)O[C@H](CO)[C@@H](O[C@@H]2O[C@H](CO)[C@@H](O)[C@H](O)[C@H]2NC(C)=O)[C@@H]1O (stereo partly drawn) [Chitotriose, N,N′,N″-triacetyl-chitotriose]	–	–	–	–	–	–	–	–	–	–	–	–	–	–	–	–	–	–	–	–	Effect on Lysozyme aggregation (Hen Egg White Lysozyme): inhibits Lysozyme aggregation
NC(N)=O [urea]	–	–	–	–	–	–	–	–	–	–	–	–	–	–	–	–	–	–	–	–	IgG unfolded (Rabbit-anti-goat IgG [1]): approximately 60%
Cc1c[n+](CCCCCCCCCC[n+]2ccc(/C=C/c3ccc(N(C)C)cc3)c(C)c2)ccc1/C=C/c1ccc(N(C)C)cc1 [TOL3]	611	471	able to detect BLG thermal shift peaks	603	511	15.6	13.4	16.9	18.6	17.6	15.4	17.6	14.9	13.9	14.8	13.8	16.3	15.5	19.9	34.6	Fluorescence enhancement with IgG aggregates relative to controls without IgG (Rabbit-anti-goat IgG [4]; aggregated IgG 0.033 mg/mL): significant fluorescence enhancement; Fluorescence enhancement with unfolded IgG monomer relative to controls without IgG (Rabbit-anti-goat IgG [4]; monomeric IgG 0.033 mg/mL): insignificant fluorescence enhancement; Fluorescence enhancement (aggregate/native IgG) ([5]; Mannitol, 100 mM): 17.5 fold; Fluorescence enhancement (aggregate/native IgG) ([5]; Mannitol, 300 mM): 25.2 fold; Fluorescence enhancement (aggregate/native IgG) ([5]; Mannitol, 600 mM): 27.5 fold; Fluorescence enhancement (aggregate/native IgG) ([5]; Sodium Chloride, 10 mM): 16.0 fold; Fluorescence enhancement (aggregate/native IgG) ([5]; Sodium Chloride, 100 mM): 16.2 fold; Fluorescence enhancement (aggregate/native IgG) ([5]; Sodium Chloride, 1000 mM): 17.4 fold; Fluorescence enhancement (aggregate/native IgG) ([5]; Sorbitol, 100 mM): 20.0 fold; Fluorescence enhancement (aggregate/native IgG) ([5]; Sorbitol, 300 mM): 19.2 fold; Fluorescence enhancement (aggregate/native IgG) ([5]; Sorbitol, 600 mM): 29.3 fold; Fluorescence enhancement (aggregate/native IgG) ([5]; Trehalose, 100 mM): 18.9 fold; Fluorescence enhancement (aggregate/native IgG) ([5]; Trehalose, 300 mM): 20.1 fold; Fluorescence enhancement (aggregate/native IgG) ([5]; Trehalose, 600 mM): 30.4 fold; Fluorescence enhancement (aggregate/native IgG) ([5]; Tween 20, 0.01%): 8.5 fold; Fluorescence enhancement (aggregate/native IgG) ([5]; Tween 20, 0.2%): 3.4 fold; Fluorescence enhancement (aggregate/native IgG) ([5]; X100, 0.01%): 6.2 fold; Fluorescence enhancement (aggregate/native IgG) ([5]; X100, 0.2%): 3.4 fold; Fluorescence enhancement (aggregate/native IgG) ([5]; X100, 1%): 1.9 fold
CN(C)c1ccc(/C=C/c2cc[n+](CCCCCC[n+]3ccc(/C=C/c4ccc(N(C)C)cc4)cc3)cc2)cc1.CS(=O)(=O)[O-].CS(=O)(=O)[O-] [Dye S25]	613	485	able to detect BLG thermal shift peaks	607	516	15.4	14.6	13.3	14.8	13.5	13.9	19.3	9.7	9.6	6.7	13.2	14.1	15.1	23.0	38.9	Fluorescence enhancement (aggregate/native IgG) ([5]; Mannitol, 100 mM): 16.7 fold; Fluorescence enhancement (aggregate/native IgG) ([5]; Mannitol, 300 mM): 15.2 fold; Fluorescence enhancement (aggregate/native IgG) ([5]; Mannitol, 600 mM): 20.9 fold; Fluorescence enhancement (aggregate/native IgG) ([5]; Sodium Chloride, 10 mM): 14.0 fold; Fluorescence enhancement (aggregate/native IgG) ([5]; Sodium Chloride, 100 mM): 13.6 fold; Fluorescence enhancement (aggregate/native IgG) ([5]; Sodium Chloride, 1000 mM): 11.7 fold; Fluorescence enhancement (aggregate/native IgG) ([5]; Sorbitol, 100 mM): 16.4 fold; Fluorescence enhancement (aggregate/native IgG) ([5]; Sorbitol, 300 mM): 21.0 fold; Fluorescence enhancement (aggregate/native IgG) ([5]; Sorbitol, 600 mM): 25.4 fold; Fluorescence enhancement (aggregate/native IgG) ([5]; Trehalose, 100 mM): 17.8 fold; Fluorescence enhancement (aggregate/native IgG) ([5]; Trehalose, 300 mM): 32.1 fold; Fluorescence enhancement (aggregate/native IgG) ([5]; Trehalose, 600 mM): 30.1 fold; Fluorescence enhancement (aggregate/native IgG) ([5]; Tween 20, 0.01%): 70.8 fold; Fluorescence enhancement (aggregate/native IgG) ([5]; Tween 20, 0.2%): 26.7 fold; Fluorescence enhancement (aggregate/native IgG) ([5]; X100, 0.01%): 19.2 fold; Fluorescence enhancement (aggregate/native IgG) ([5]; X100, 0.2%): 7.3 fold; Fluorescence enhancement (aggregate/native IgG) ([5]; X100, 1%): 2.9 fold
